Data published in a melting point compilation (Tetko et al.; mined from patent text by program, amines drawn as free bases though some values may be those of a salt).

Row | SMILES | melting point
1 | Nc1nc(OCC(F)(F)F)cc(C(F)(F)F)n1 | 108 to 110 °C
2 | Cc1nc(C2OC(CO)C(O)C2O)c(N)nc1OCc1ccccc1 (stereo not given) | 152 to 153 °C
3 | COc1cc2c(cc1OC)SCCC(C(=O)N1CCN(C(=O)c3cc(OC)c(OC)c(OC)c3)CC1)=C2 | 113 °C
4 | Cc1cc(CCC(=O)O)no1 | 82 to 84 °C
5 | CN(C)c1nc2sc3c(NCc4ccco4)ncnc3c2c2c1CC(C)(C)C2 | 217 °C
6 | CCCC(C)(C)NC(=S)Nc1cc(Cl)cc(Cl)c1 | 115 to 117 °C
7 | CCCc1nc(Nc2cccc(N(C)C)c2)nc(NC2CCN(S(C)(=O)=O)CC2)n1 | 134 to 136 °C
8 | COC(=O)CCSCc1csc(NC(N)=NCC(F)(F)F)n1 | 96 to 98 °C
9 | Cc1ccc(CNC(=O)C2=C(C(=O)Nc3cc(OC4CCCC4)c(Cl)cc3F)CCCC2)cc1 | 168 to 169 °C
10 | Cc1c(S(=O)(=O)c2ccc(=O)[nH]n2)oc2ccccc12 | 182 to 183 °C
11 | Cn1cccc1-c1cc2nccnc2[nH]1 | 208 to 209 °C
12 | CSc1ncc2c(n1)N(Cc1ccc(F)c(F)c1)c1ccccc1-n1nnnc1-2 | 281 to 283 °C
13 | Cc1ccc(Br)cc1-c1c(O)c(C)nn(C)c1=O | 217 to 218 °C
14 | Nc1ccn(C2OC(CO)C(O)C2O)c(=O)c1Cl (stereo not given) | 197 to 199 °C
15 | CN1Cc2cccc3[nH]cc(c23)C1 | 185 to 186 °C
16 | COc1ccc(C2NC(C(=O)O)CS2)cc1 (stereo not given) | 150 to 151 °C
17 | C=C(C)c1ccc(OCCO)cc1 | 78 to 80 °C
18 | CCOC(=O)c1nn(-c2ccc([N+](=O)[O-])cc2)c2c1CCCC2 | 173 °C
19 | CCC(=Cc1ccccc1)C(=O)O | 104 to 105 °C
20 | Cn1c(C(F)(F)F)cc(=O)n(-c2c(F)cc(Cl)c3c2OC(C)(C)C3O)c1=O (stereo not given) | 82 to 83 °C
21 | CC(C)c1nn(-c2ccc(C(F)(F)F)cn2)cc1CCCCOS(C)(=O)=O | 87 to 89 °C
22 | CCc1ccc(Nc2c(F)c(F)cc(F)c2F)c(CC(=O)O)c1 | 165 to 169 °C

Row | SMILES | melting point
23 | O[C@@H]1[C@H](O)[C@H](O)CO[C@H]1n1c(Br)nc2c(F)c(Cl)c(Cl)cc21 | 165 °C
24 | CCCCCCCc1ccc(-c2nc(C)c(C(C)=NNC(=N)N)s2)cc1 | 233 to 235 °C
25 | CC1c2ccc(F)n2-c2cc(F)c(F)cc2N1S(=O)(=O)c1ccc(O)cc1 (stereo not given) | 184 to 189 °C
26 | Cc1cc([C@@H](O)[C@@H]2[C@@H](C)CCCC2(C)C)ccc1C#N | 111 to 113 °C
27 | CC1(C)CN(C2CC3(C)C(CCC4C3CCC3(C)C(C(=O)CSC#N)CCC43)CC2O)CCO1 (stereo not given) | 166 °C
28 | CCOc1nn(-c2ccc(C(F)(F)F)cn2)cc1CCCOc1cc(CC(=O)O)ccc1OC | 142 to 143 °C
29 | CN1CCC(Cc2cc3cccnc3[nH]2)C1 (stereo not given) | 96 to 97 °C
30 | FC(F)C(F)(F)Sc1nc(-c2ccco2)c(-c2ccco2)[nH]1 | 166 to 167 °C
31 | O=C(COc1ccon1)NCCO[N+](=O)[O-] | 67 to 69 °C
32 | CCOC(=O)c1ccc(C(F)(F)F)cc1SC | 44 to 45 °C
33 | CCOC(=O)Cc1sc(Sc2nc(C)ccc2C(=O)OCC)nc1C | 95 to 97 °C
34 | CCCCCCCCCc1ccc(-c2ccc(OCC(OC3CCCCO3)C(F)(F)F)nn2)cc1 (stereo not given) | 96.1 °C
35 | CC(C)(C)c1nnc(-c2nn(-c3ccc(F)cc3F)c3c2C2CCC3C2)o1 (stereo not given) | 108 to 110 °C
36 | COc1cnc(CSc2nc3cc(OC(F)F)ccc3[nH]2)c(C)c1OC | 100 to 102 °C
37 | CCOC(=O)c1cn(CC)c2nc(Cl)c(F)cc2c1=O | 150 to 160 °C
38 | O=C1CCCc2c1ccn2S(=O)(=O)c1ccccc1 | 108 to 110 °C
39 | CCOC(=O)CCCn1c(NC(=O)c2cccs2)nc2cc(C(=O)N(C)C3CCCCC3)ccc21 | 82 to 84 °C
40 | Cc1nccn1-c1cccc(O)c1 | 178 to 181 °C
41 | CC1=C(C(=O)OC(C)(C)C)C(c2cccc([N+](=O)[O-])c2)N(C(=O)N(C)C)C(=O)N1 (stereo not given) | 187 to 188 °C
42 | COCOc1cc(/C=C/S(=O)(=O)NC(=O)OC(C)(C)C)n(Cc2ccc(Cl)cc2Cl)n1 | 139 to 140 °C
43 | COc1ccc(Cl)cc1-c1nnn(-c2ccc(Cl)cc2Cl)c1N | 154 to 155 °C
44 | CCCCCc1c(C(C)C)nc(C(C)C)c(CO)c1-c1ccoc1 | 98 to 100 °C

Row | SMILES | melting point
45 | COc1cc(CCc2c(CO)ccc(OC)c2OC)cc(OC)c1 | 126 to 128 °C
46 | CCCCCCCCCCCC1CNc2cc(C(=O)O)ccc21 (racemic) | 107 to 111 °C
47 | CN(C(=O)Cc1cccc2ccccc12)C1c2ccccc2CC1N1CCCC1 (stereo not given) | 127 °C
48 | COc1ccc(OC)c2c1C[C@](C)(O)CC21SCCS1 | 152 to 153 °C
49 | CCNC(=O)Nc1ncc(-c2ccncc2)cn1 | 241 to 246 °C
50 | Cc1ccc(Cc2c(C(F)(F)F)[nH][nH]c2=O)cc1 | 150 to 152 °C
51 | Cc1nc2cccc(Cn3ccc4cc(Cl)ccc43)c2c(=O)[nH]1 | 251 to 252 °C
52 | COC(=O)CCCN1CCC(CNC(=O)[C@@H]2CCCN2S(=O)(=O)c2ccc(Cl)c(COc3cccc4c(-n5ccnc5)cc(C)nc34)c2Cl)CC1 | 98 °C
53 | CC(=O)OC1CSC(Oc2ccc(S(C)(=O)=O)cc2)C(OC(C)=O)C1OC(C)=O (stereo not given) | 168 °C
54 | CNC(C)=C(C#N)C(=O)c1ccc(Cl)cc1 | 152 °C
55 | CCOCn1c(Cl)c(C#N)c(Cl)c1-c1ccc(Cl)c(Cl)c1 | 106 to 109 °C
56 | CCC1(c2cccc([N+](=O)[O-])c2)C(=O)NC(=O)NC1=O | 283 to 284 °C
57 | COc1cc2cnnc(N3CCC(CCN(C)C(=O)Nc4cccnc4)CC3)c2cc1OC | 200 to 204 °C
58 | Cn1c(=O)[nH]c(=O)n(-c2cc(N)c(F)cc2Cl)c1=O | 244 to 245 °C
59 | CCOC(=O)c1cn(C2COC2)c2cc(F)c(F)cc2c1=O | 177 to 178 °C
60 | CC(C)(C)[Si](C)(C)O[C@@H]1C[C@]2(O)C[C@@H](OC2=O)C1=O | 92 to 95 °C
61 | COC(=O)COc1ccc(C(=O)CN)cc1 | 135 to 136 °C
62 | CCN1C(=O)NC(Cc2c[nH]c3ccccc23)C1=O (stereo not given) | 167 to 170 °C
63 | CCCCCCCCCCCCCCc1ccc2c(c1)C(=O)C(=O)N2 | 87 to 89 °C
64 | CN(Cc1ccc(Cl)cc1)S(=O)(=O)c1cn(S(=O)(=O)N(C)C)cn1 | 112 to 114 °C

More lines, now with the values ahead:

Row | melting point | SMILES
65 | 188 to 190 °C | CNC(=O)n1c(NC(=O)c2ccc(NC(=N)N)cc2)nc2ccccc21
66 | 228 to 230 °C | Cc1ccc2c(c1)oc1c(C(=O)O)nn(-c3ccc(Cl)cc3Cl)c12
67 | 265 to 268 °C | Cc1nc(-c2sc(-c3ccc(Cl)cc3)nc2C)sc1C(=O)O
68 | 105 to 106 °C | CC(=O)NC1(C)CCN(Cc2ccccc2)C1 (stereo not given)
69 | 181 to 182 °C | N#CCc1cccc(C(=O)c2ccc(Cl)cc2)c1N
70 | 89 to 90 °C | COC(=O)c1cc(OCc2nc(-c3ccccc3)sc2C)no1
71 | 214 to 216 °C | CCOc1ccc(-c2nc(O)c(-c3ccccc3)s2)cc1
72 | 167 to 169 °C | COc1ccc(S(=O)(=O)N2c3ccccc3-c3ccccc3C2C)cc1 (stereo not given)
73 | 219 to 220 °C | O=c1c2cccnc2n(-c2cccc([N+](=O)[O-])c2)c(=O)n1Cc1ccccc1
74 | 171 °C | Oc1ccc2c(c1)CCCC(c1ccccc1)=C2c1ccc(OCCCCCSCc2ccco2)cc1
75 | 204 to 206 °C | O=S(=O)(c1ccccc1)n1c2ccc(Br)cc2c2ccc(Cl)nc21
76 | 88.5 to 90 °C | CN(C)CCOc1ccc(N(C(=O)c2ccc(F)cc2)c2ccccc2)cc1
77 | 121 to 122 °C | NC(CO)(CO)CCc1ccc(C(=O)CCCCCCc2ccccc2)cc1
78 | 65 to 69 °C | CCCCN(Cc1ccc(-c2ccccc2-c2nc(=O)o[nH]2)cc1)c1ncncc1C(=O)OCC
79 | 156 °C | Clc1ccc(C2(Cn3ccnc3)OCC(COc3ccc(-c4ccccc4)cc3)O2)c(Cl)c1 (stereo not given)
80 | 108 to 109 °C | CCCNC(=O)c1nc(-c2ccccc2)c(-c2ccc(=O)n(C)n2)s1
81 | 168 to 170 °C | Cc1c(CC(=O)O)c2cc(OCc3ccc4ccccc4c3)ccc2n1Cc1ccc(Cl)cc1
82 | 322 to 324 °C | Cc1nc2c3c(c(C(=O)N4CCC(O)C4)cc2n1C)CCC(c1ccccc1)O3 (stereo not given)

Row | melting point | SMILES
83 | 149 to 153 °C | CCOCCOc1c(C)cc(Oc2ccc3c(c2)C=C(C(=O)O)CCS3(=O)=O)cc1C
84 | 183 to 184 °C | Cc1c2c(c3ccccc3c1NC(=O)CC(C)(C)C)OCC2c1ccc(C(C)C)cc1 (stereo not given)
85 | 72 to 75 °C | c1ccc(CN2CCOC(c3ccccc3)(c3ccccc3)CC2)cc1
86 | 79 to 81 °C | O=CCOc1ccc(Oc2ccccc2)cc1
87 | 210 to 213 °C | Cc1cn(Nc2ccncc2F)c2ccc(OCc3ccccc3)cc12
88 | 178 to 180 °C | COC(=O)c1cccc(NC(=O)NS(=O)(=O)c2ccc(C)cc2)c1
89 | 235 to 236 °C | COc1cc(C)nc(NC(=O)NS(=O)(=O)c2ccccc2C2=CCCC2)n1
90 | 105 to 108 °C | CC1(C)CCC(C)(C)c2cc(-c3cc(-c4ccc(C(=O)NO)cc4)ccc3-c3ccccc3)ccc21
91 | 118 to 120 °C | O=C(Nc1ccc(Oc2ccnc(NC3CCCCC3)n2)c2ccccc12)c1cc(F)cc(N2CCCCC2)c1
92 | 109 to 111 °C | O=C(O)CC=C(c1ccccc1)c1ccccc1
93 | 142 to 145 °C | CC1Cc2c(c3ccccc3n2C(=O)c2ccccc2)C(C)C1C(=O)O (stereo not given)
94 | 66 to 68 °C | CCOC(=O)/C=C/c1cccc(C(=O)c2ccc(C(F)(F)F)cc2)n1
95 | 130 to 132 °C | CC(=O)OC(C)(C)C(=O)Nc1ccc(Sc2ccc(N)cc2)cc1Cl
96 | 166 °C | CCOC(=O)C1=C(C)NC(CN2C(=O)c3ccccc3C2=O)=C(C(=O)OCC)C1c1ccccc1Cl (stereo not given)
97 | 225 to 228 °C | CCn1c2ccccc2c2c3c(c(-c4ccccc4Cl)cc21)C(=O)NC3O (stereo not given)
98 | 200 to 201 °C | COc1ccc(C2=C(NC(=O)Nc3c(C)cccc3C(C)C)CN(C)c3ccc(Cl)cc32)cc1OC
99 | 109 °C | COc1cccc2c(Oc3cc(-n4c(=O)cc(C(F)(F)F)n(C)c4=O)c(F)cc3C#N)cccc12
100 | 187 to 189 °C | CN(c1ccc(Cl)cc1)S(=O)(=O)c1cccc(NC(=O)c2ccc(Br)cc2)c1
